Experimental findings from ChEMBL document CHEMBL3046363, “Synthesis, fungicidal, and insecticidal activities of beta-Methoxyacrylate-containing N-acetyl pyrazoline derivatives” (J Agric Food Chem, 2008) are described below.

Active and inactive are the calls of the source. The rule behind the calls is not given here. Where only a bound is given, the exact number is not on record here.

One assay concerns Podosphaera fuliginea. Put plainly: In vivo fungicidal activity against Podosphaera fuliginea infected cucumber plants assessed as inhibition of disease symptoms at 200 ug/ml treated one day prior to fungal spore inoculation measured after one week. The assay is classed as functional.
Another assay has as its system Rhizoctonia solani. Description: In vivo fungicidal activity against Rhizoctonia solani infected in cucumber plants assessed as inhibition of disease symptoms at 200 ug/ml treated one day prior to fungal spore inoculation measured after one week. The assay is classed as functional, organism-based.
Assay [1] relates to Pseudoperonospora cubensis. Put plainly: In vivo fungicidal activity against Pseudoperonospora cubensis infected in cucumber plants assessed as inhibition of disease symptoms at 200 ug/ml treated one day prior to fungal spore inoculation measured after one week. The class given is functional.
The next assay relates to Botrytis cinerea. Put plainly: In vivo fungicidal activity against Botryotinia fuckeliana infected in cucumber plants assessed as inhibition of disease symptoms at 200 ug/ml treated one day prior to fungal spore inoculation measured after one week. The class given is functional, organism-based.

For orientation: inhibition in vivo means the relative decrease from the control value, in per cent.

On to `CO/C=C(/C(=O)OC)c1ccccc1COc1ccccc1C1=NN(C(C)=O)C(c2cccc(OC)c2)C1` (stereo unspecified), for which the inhibition in vivo at 200 µg/mL (in the assay with Podosphaera fuliginea; in assay [1]) was less than 60% in each case. Moreover, the inhibition entry with Rhizoctonia solani and in the assay with Botrytis cinerea was “inactive” in each case.

`CO/C=C(/C(=O)OC)c1ccccc1COc1ccc(C2=NN(C(C)=O)C(c3ccc(F)cc3)C2)cc1` (stereo unspecified): the inhibition in vivo at 200 µg/mL (with Podosphaera fuliginea; in assay [1]) was less than 60% each time. Moreover, the inhibition result in the assay with Rhizoctonia solani and with Botrytis cinerea was “inactive” in each case.

Regarding `CO/C=C(/C(=O)OC)c1ccccc1COc1ccc(C2=NN(C(C)=O)C(c3ccc4c(c3)OCO4)C2)cc1` (stereo unspecified), the inhibition in vivo at 200 µg/mL in the assay with Podosphaera fuliginea is less than 60%; in assay [1], 100%. Moreover, the inhibition result in the assay with Rhizoctonia solani and in the assay on Botrytis cinerea was “inactive” each time.

With `CO/C=C(/C(=O)OC)c1ccccc1COc1ccc(C2=NN(C(C)=O)C(c3ccc(C(C)(C)C)cc3)C2)cc1` (stereo unspecified), the inhibition in vivo at 200 µg/mL (in the assay with Podosphaera fuliginea; in assay [1]) was less than 60% in each case. The inhibition result in the assay with Rhizoctonia solani and in the assay on Botrytis cinerea was “inactive” in each case.

As to `CO/C=C(/C(=O)OC)c1ccccc1COc1ccc(C2=NN(C(C)=O)C(c3cccc(OC)c3)C2)cc1` (stereo unspecified), the inhibition in vivo at 200 µg/mL with Podosphaera fuliginea was less than 60%; in assay [1], not below 70%. Also, the inhibition result with Rhizoctonia solani and in the assay on Botrytis cinerea was “inactive” each time.

Take `CO/C=C(/C(=O)OC)c1ccccc1COc1ccc(C2=NN(C(C)=O)C(c3ccc(OC)cc3)C2)cc1` (stereo unspecified): the inhibition in vivo at 200 µg/mL (with Podosphaera fuliginea; in assay [1]) was less than 60% throughout. Further, the inhibition entry in the assay with Rhizoctonia solani and in the assay on Botrytis cinerea was “inactive” in each case.

In the case of `CO/C=C(/C(=O)OC)c1ccccc1COc1ccccc1C1=NN(C(C)=O)C(c2ccc(Cl)c(Cl)c2)C1` (stereo unspecified), the inhibition in vivo at 200 µg/mL (in the assay with Podosphaera fuliginea; in assay [1]) was less than 60% throughout. Besides, the inhibition entry with Rhizoctonia solani and in the assay with Botrytis cinerea was “inactive” in each case.

On to `CCc1ccc(C2CC(c3ccc(OCc4ccccc4/C(=C\OC)C(=O)OC)cc3)=NN2C(C)=O)cc1` (stereo unspecified), for which the values for the inhibition in vivo at 200 µg/mL (in the assay on Podosphaera fuliginea; in assay [1]) were less than 60% and 100%, respectively. Also, the inhibition entry with Rhizoctonia solani and with Botrytis cinerea was “inactive” throughout.

For `CCOc1ccc(C2CC(c3cccc(OCc4ccccc4/C(=C\OC)C(=O)OC)c3)=NN2C(C)=O)cc1` (stereo unspecified), the inhibition in vivo at 200 µg/mL in the assay with Podosphaera fuliginea is less than 60%; in assay [1], 100%. Also, the inhibition entry in the assay with Rhizoctonia solani and with Botrytis cinerea was “inactive” throughout.

In the case of `CO/C=C(/C(=O)OC)c1ccccc1COc1ccc(C2=NN(C(C)=O)C(c3ccc(Cl)cc3)C2)cc1` (stereo unspecified), the inhibition in vivo at 200 µg/mL in the assay with Podosphaera fuliginea was less than 60%; in assay [1], 100%. Also, the inhibition result in the assay on Rhizoctonia solani and with Botrytis cinerea was “inactive” throughout.

For `CO/C=C(/C(=O)OC)c1ccccc1COc1cccc(C2=NN(C(C)=O)C(c3ccccc3Br)C2)c1` (stereo unspecified), the inhibition in vivo at 200 µg/mL with Podosphaera fuliginea is less than 60%; in assay [1], 100%. For the same compound, the inhibition entry in the assay on Rhizoctonia solani and in the assay on Botrytis cinerea was “inactive” in each case.

Take `CO/C=C(/C(=O)OC)c1ccccc1COc1ccccc1C1=NN(C(C)=O)C(c2ccc(Br)cc2)C1` (stereo unspecified): the inhibition in vivo at 200 µg/mL (with Podosphaera fuliginea; in assay [1]) was less than 60% each time. The inhibition entry with Rhizoctonia solani and in the assay on Botrytis cinerea was “inactive” in each case.

As for `CO/C=C(/C(=O)OC)c1ccccc1COc1ccc(C2=NN(C(C)=O)C(c3ccc(Cl)cc3Cl)C2)cc1` (stereo unspecified), the inhibition in vivo at 200 µg/mL (in the assay with Podosphaera fuliginea; in assay [1]) was less than 60% throughout. Moreover, the inhibition entry with Rhizoctonia solani and in the assay with Botrytis cinerea was “inactive” in each case.

As for `CO/C=C(/C(=O)OC)c1ccccc1COc1ccc(C2=NN(C(C)=O)C(c3ccccc3F)C2)cc1` (stereo unspecified), the inhibition in vivo at 200 µg/mL (in the assay with Podosphaera fuliginea; in assay [1]) was less than 60% each time. Besides, the inhibition result with Rhizoctonia solani and with Botrytis cinerea was “inactive” each time.
